# According to paper PMC7354492, “Drugs Commonly Applied to Kidney Patients May Compromise Renal Tubular Uremic Toxins Excretion” (Toxins, 2020):
# Counter-ions that a name gives are not always drawn. Like-named read-outs stand apart in the source and are kept apart here.
# T1: OAT1 (Homo sapiens, UniProt Q4U2R8)
# T1 sequence (Q4U2R8 1-563): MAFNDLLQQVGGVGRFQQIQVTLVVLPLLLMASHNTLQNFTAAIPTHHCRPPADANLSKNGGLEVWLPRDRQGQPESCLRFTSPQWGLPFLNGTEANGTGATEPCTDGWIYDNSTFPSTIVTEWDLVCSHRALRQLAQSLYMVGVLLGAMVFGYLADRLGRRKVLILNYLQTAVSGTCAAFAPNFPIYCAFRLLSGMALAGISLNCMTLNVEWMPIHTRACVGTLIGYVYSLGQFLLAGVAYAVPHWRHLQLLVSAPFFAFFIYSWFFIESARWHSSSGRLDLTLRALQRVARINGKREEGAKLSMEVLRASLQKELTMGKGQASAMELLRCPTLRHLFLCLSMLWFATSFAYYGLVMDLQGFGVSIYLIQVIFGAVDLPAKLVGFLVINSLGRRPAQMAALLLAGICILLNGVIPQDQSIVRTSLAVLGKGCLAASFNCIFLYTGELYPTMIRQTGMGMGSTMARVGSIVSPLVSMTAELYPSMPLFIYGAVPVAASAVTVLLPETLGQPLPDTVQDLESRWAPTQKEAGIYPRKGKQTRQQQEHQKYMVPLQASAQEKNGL
# B1: OAT1 (Homo sapiens) (protein)
# chain: T1 sequence (Q4U2R8 1-563)
# Assays:
# OAT1 [1] = biological target: T1, OAT1; experiment: OAT1-mediated fluorescein uptake inhibition assay in ciPTEC-OAT1; conditions: for lowest drug concentration with statistically significant decrease (p<0.05) of % fluorescein uptake, with IS: co-incubation with IS; for lowest drug concentration with statistically significant decrease (p<0.05) of % fluorescein uptake, with IS / lowest drug concentration with statistically significant decrease (p<0.05) of % fluorescein uptake, with KA / lowest drug concentration with statistically significant decrease (p<0.05) of % fluorescein uptake, with PCS: reference = toxin alone; for lowest drug concentration with statistically significant decrease (p<0.05) of % fluorescein uptake, with KA: co-incubation with KA; for lowest drug concentration with statistically significant decrease (p<0.05) of % fluorescein uptake, with PCS: co-incubation with PCS; for IC50 at 10 min: human, ciPTEC-OAT1 mature monolayers, pH 7.4, probe fluorescein 1 µM
# Experimental: Uptake arrest was performed by washing with ice-cold HBSS (Life Technologies Europe BV, Roskilde, Denmark), and then the cells were lysed by 100 µL 0.1 M NaOH for 10 min, at room temperature and under mild shaking. […] Background values were subtracted and normalized arbitrary fluorescence unit (AFU) data were converted into percentage (%).
# In order to replicate the uremic condition present in CKD patients, a specific mixture of eight known anionic PBUTs (Table S1), predominantly derived from endogenous metabolism pathways and food digestion in the gut, was used at concentrations corresponding to those found in patients.
# All data are expressed as mean ± standard deviation (SD) of at least three separate experiments. Inhibition data were fitted according to one-site total binding saturation curve using non-linear regression analysis ((inhibitor) vs. response-variable slope) and Vmax values were calculated according to Michaelis-Menten kinetics using non-linear regression analysis. […] All experiments were performed four times.
# [2] = cited from earlier work
# [3] = cited from earlier work; for T1/2 (pharmacologic half life): ref 44 (pravastatin: ref 45)
# [4] = Human clearance and half life of tested drugs; format: in vivo
# plasma proteins = conditions: cited from earlier work; for Protein Binding (%): ref www.drugbank.ca; for bound to plasma proteins: PBUTs in plasma, ref 68 (IS, PCS), ref 69 (KA)
# OAT1 [5] = biological target: T1, OAT1; conditions: read-out: IC50 of uremic toxin in ciPTEC-OAT1 system; cited from earlier work
# OAT1 [6] = conditions: read-out: IC50 (uric acid uptake, OAT1); OAT1-expressing Flp-HEK293 cells; ref Sato et al. [58]; cited from earlier work
# [7] = substrate: O=C1OC2(c3ccc(O)cc3Oc3cc(O)ccc32)c2ccccc21; experiment: cells, lysate or membranes; conditions: pH 7.4; 37.0 °C
# [8] = co-incubation with UTox, lowest drug concentration
Molecule,IC50 (OAT1 [1]) [µM],Therapeutic Concentrations ([2]; ref 44 (pravastatin: ref 45)) [µM],Renal CL ([3]; human) [mL/min/kg],T1/2 (pharmacologic half life) [3],Renal Clearance (% of Total CL) [4] [%],Protein Binding (%) (plasma proteins),also measured
"C[C@H](CS)C(=O)N1CCC[C@H]1C(=O)O [Captopril, captopril]",2020 ± 465,0.2 to 5,–,–,–,–,–
CN/C(=N/CCSCc1nc[nH]c1C)NC#N [Cimetidine],888 ± 198,1 to 16,7.9,1.5–4 h,97,20%,–
"C[C@H](N[C@@H](CCc1ccccc1)C(=O)O)C(=O)N1CCC[C@H]1C(=O)O [Enalaprilate, enalaprilate]",–,0.04 to 0.4,1.6,8–11 h,100,50%,inhibition of human OAT1 (in words) (OAT1 [1]; captopril and enalaprilate only at high concentrations with no therapeutic relevance): inhibited; Total CL ([3]; human): 1.6 mL/min/kg
"NS(=O)(=O)c1cc(C(=O)O)c(NCc2ccco2)cc1Cl [Furosemide, furosemide]",–,6 to 30,–,–,–,–,–
O=S(=O)(O)Oc1c[nH]c2ccccc12 [Indoxyl sulfate],–,–,–,–,–,–,bound to plasma proteins (plasma proteins): 90–95%
"O=C(O)[C@H]1O[C@@H](Oc2c[nH]c3ccccc23)[C@H](O)[C@@H](O)[C@@H]1O [Indoxyl-β-D-glucoronide, indoxyl-β-D-glucoronide]",–,–,–,–,–,–,IC50 (OAT1 [5]): 492 ± 68 µM
"O=C(O)c1cc(=O)c2ccccc2[nH]1 [Kynurenic acid, kynurenic acid]",–,–,–,–,–,–,bound to plasma proteins (plasma proteins): 70%
"NCCCC[C@H](N[C@@H](CCc1ccccc1)C(=O)O)C(=O)N1CCC[C@H]1C(=O)O [Lisinopril, lisinopril]",–,0.01 to 0.16,–,–,100,negligible,–
"CCCCc1nc(Cl)c(CO)n1Cc1ccc(-c2ccccc2-c2nn[nH]n2)cc1 [Losartan, losartan]",8.6 ± 2.5,0.5 to 1.5,0.9,1.5–2 h,11,99%,"lowest drug concentration with statistically significant decrease (p<0.05) of % fluorescein uptake, with IS (OAT1 [1]): 1 µM; lowest drug concentration with statistically significant decrease (p<0.05) of % fluorescein uptake, with KA (OAT1 [1]): 5 µM; lowest drug concentration with statistically significant decrease (p<0.05) of % fluorescein uptake, with PCS (OAT1 [1]): 1 µM; Percentage (%) Fluorescein Uptake at the Lowest Drug Concentration in the presence of UTox (OAT1 [1]; [8]): 23.5 ± 3.5%; IC50 at 10 min (OAT1 [1]): 3.1 ± 0.7 µM; IC50 (OAT1 [6]): 12 µM"
"CC[C@H](C)C(=O)O[C@H]1C[C@H](O)C=C2C=C[C@H](C)[C@H](CC[C@@H](O)C[C@@H](O)CC(=O)O)[C@H]21 [Pravastatin, pravastatin]",13.8 ± 8.5,0.08 to 0.3,6.3,1–2.5 h,45,60%,"lowest drug concentration with statistically significant decrease (p<0.05) of % fluorescein uptake, with IS (OAT1 [1]): 5 µM; lowest drug concentration with statistically significant decrease (p<0.05) of % fluorescein uptake, with KA (OAT1 [1]): 5 µM; lowest drug concentration with statistically significant decrease (p<0.05) of % fluorescein uptake, with PCS (OAT1 [1]): 1 µM; Percentage (%) Fluorescein Uptake at the Lowest Drug Concentration in the presence of UTox (OAT1 [1]; [8]): 27.8 ± 2.6%; IC50 at 10 min (OAT1 [1]): 23.2 ± 8.3 µM; Therapeutic Concentrations ([2]; second value in cell): 0.43 µM"
"CCC(C)(C)C(=O)O[C@H]1C[C@@H](C)C=C2C=C[C@H](C)[C@H](CC[C@@H]3C[C@@H](O)CC(=O)O3)[C@H]21 [Simvastatin, simvastatin]",–,–,–,2 h,13,–,–
"CCCCC(=O)N(Cc1ccc(-c2ccccc2-c2nnn[nH]2)cc1)[C@H](C(=O)O)C(C)C [Valsartan, valsartan]",11.5 ± 3.5,2 to 14,0.14,6–9 h,29,94–97%,Percentage (%) Fluorescein Uptake at the Lowest Drug Concentration in the presence of UTox (OAT1 [1]): 24.7 ± 4.5%; IC50 (OAT1 [6]): 16 µM
"Cc1ccc(O[C@@H]2O[C@H](C(=O)O)[C@@H](O)[C@H](O)[C@H]2O)cc1 [p-Cresylglucuronide, p-cresylglucuronide]",–,–,–,–,–,–,IC50 (OAT1 [5]): 2650 ± 922 µM
"Cc1ccc(OS(=O)(=O)O)cc1 [p-Cresylsulfate, p-cresylsulfate]",–,–,–,–,–,–,IC50 (OAT1 [5]): 79 ± 14 µM; bound to plasma proteins (plasma proteins): 90–95%
B1,–,–,–,–,–,–,Km [7]: 0.93 ± 0.09 µM
